Reference: US10945978B2, “Treatment and diagnosis of melanoma” (The Rockefeller University, priority 2012, dated 2021)
“Also recorded” adds a separate entry of the source.

Key:
ApoE = ApoE expression by qRT-PCR in human melanoma cells; assay type: cell-based; conditions: MeWo cells, 500 nM, 1 μM or 2 μM, 48 hours
Method: Total RNA was extracted from various cell lines using the miRvana kit (AM1560, Applied Biosystems, Austin, Tex.). The expression levels of mature miRNAs were quantified using the Taqman miRNA expression assay (4427975-0002228, Applied Biosystems). RNU44 was used as an endogenous control for normalization. For mRNA expression analyses, 600 ng of total RNA was reverse transcribed using the cDNA First-Strand Synthesis Kit (18080-051, Invitrogen), and roughly 200 ng of the resulting cDNA was then mixed with SYBR green PCR Master Mix (4309155, Applied Biosystems) and the appropriate primers. Each reaction was performed in quadruplicate, and mRNA expression was quantified by performing real-time PCR amplification using an ABI Prism 7900HT Real-Time PCR System (Applied Biosystems). GAPDH was used as an endogenous control for normalization. The following primers were used: […]
RNA was extracted from whole cell lysates using the Total RNA Purification Kit (17200, Norgen, Thorold, Canada). 600 ng of total RNA was then reverse transcribed into cDNA using the cDNA First-Strand Synthesis Kit (18080-051, Invitrogen), and quantitative real-time PCR amplification was performed as previously described (Pencheva et al., 2012) using an ABI Prism 7900HT Real-Time PCR System (Applied Biosystems, Austin, Tex.). Each PCR reaction was carried out in quadruplicates. Gene expression was normalized to GAPDH, which was used as an endogenous control.
For every sample, 600 ng of RNA was reverse transcribed into cDNA using the cDNA First-Strand Synthesis kit (Invitrogen). Approximately 200 ng of cDNA was mixed with SYBR® green PCR Master Mix and the corresponding forward and reverse primers specific for detection of human ApoE. Each reaction was carried out in quadruplicates, and ApoE mRNA expression levels were measured by quantitative real-time PCR amplification using an ABI Prism 7900HT Real-Time PCR System (Applied Biosystems). The relative ApoE expression was determined using the ΔΔCt method. GAPDH was used as an endogenous control for normalization purposes.

[1] = tested on: MeWo, MeWo-LM2, HT-144, SK-Mel-2 and SK-Mel-334.2 human melanoma cells; assay: Trans-well matrigel cell invasion assay, melanoma cells; assay type: cell-based; conditions: 1 μM for 72 hours
Method: Cancer cells were serum-starved in 0.2% FBS DMEM-based media for 12 hours. Trans-well invasion chambers (354480, BD Biosciences, Bedford, Mass.) were pre-equilibrated prior to beginning the assay by adding 0.5 mL of starvation media to the top and bottom chambers. After 30 minutes, the media in the top chamber was removed, and 0.5 mL of media containing 1×10^5 cancer cells was added into each matrigel-coated trans-well insert and incubated at 37° C. for 24 hours. For neutralization antibody and/or recombinant protein experiments, antibody/recombinant protein was added to each well at the start of the assay at the following concentrations as indicated in the figures: 5-40 μg/mL anti-ApoE 1D7 (Heart Institute, University of Ottawa), 5-40 μg/mL anti-IgG (AB-108-C, R&D Systems, Minneapolis, Minn.), 100 μM recombinant human ApoE3 (4696, BioVision, Mountain View, Calif.), and 100 μM BSA (A2153, Sigma-Aldrich). Upon completion of the assay, matrigel-coated inserts were washed with PBS, the cells at the top side of each insert were scraped off, and the inserts were fixed in 4% paraformaldehyde for 15 minutes. The inserts were then cut out and mounted onto slides using VectaShield mounting medium containing DAPI (H-1000, Vector Laboratories, Burlingame, Calif.). The basal side of each insert was imaged using an inverted fluorescence microscope (Zeiss Axiovert 40 CFL) at 5× magnification, taking three representative images for each insert. The number of invaded cells was quantified using ImageJ (NIH).
The cell invasion assay was performed as previously described in detail (Pencheva et al., 2012) using a trans-well matrigel invasion chamber system (354480, BD Biosciences). In brief, various melanoma cells were cultured in the presence of DMSO, GW3965, T0901317, or Bexarotene at 1 μM for 56 hours, after which melanoma cells were switched to starvation media (0.2% FBS) for 16 hours in the presence of each drug. Following starvation, cells were seeded into matrigel-coated trans-well inserts, and the invasion assay was allowed to proceed for 24 hours at 37° C. For ApoE antibody neutralization experiments, 40 μg/mL 1D7 anti-ApoE blocking antibody (Heart Institute, University of Ottawa, Ottawa, Canada) or 40 t g/mL anti-IgG control antibody (AB-108-C, R&D Systems, Minneapolis, Minn.) was added to each trans-well insert at the start of the assay.
The cells were then serum starved for 16 hours in 0.2% FBS media in the presence of each corresponding drug or DMSO. Following serum starvation, the cells were subjected to the trans-well invasion assay using a matrigel invasion chamber system (354480, BD Biosciences). Invasion chambers were pre-equilibrated prior to the assay by adding 0.5 mL of starvation media to the top and bottom wells. Meanwhile, cancer cells were trypsinized and viable cells were counted using trypan blue. Cancer cells were then resuspended at a concentration of 2×10^5 cells/1 mL starvation media, and 0.5 mL of cell suspension, containing 1×10^5 cells, was seeded into each trans-well. The invasion assay was allowed to proceed for 24 hours at 37° C. […] Following fixation, the inserts were washed in PBS, cut out, and mounted onto slides using VectaShield mounting medium containing DAPI nuclear stain (H-1000, Vector Laboratories). The basal side of each insert was imaged using an inverted fluorescence microscope (Zeiss Axiovert 40 CFL) at 5× magnification, and the number of DAPI-positive cells was quantified using ImageJ.

[2] = tested on: B16F10 mouse melanoma cells; assay: Subcutaneous B16F10 tumor growth in C57BL/6 mice; conditions: in chow: WO-2010-0138598 Ex. 9 10 or 100 mg/kg/day, SB742881 100 mg/kg/day
Method: Animals were palpated weekly for tumor formation, after which sizeable tumors were measured twice a week. Tumor volume was calculated as (small diameter)^2×(large diameter)/2.

[3] = tested on: human umbilical vein endothelial cells (HUVEC's); assay: Endothelial recruitment assay (HUVEC migration towards melanoma cells); assay type: cell-based; conditions: MeWo, HT-144, SK-Mel-2, SK-Mel-334.2; 1 μM for 72 hours
Method: 5×10^4 cancer cells were seeded into 24-well plates approximately 24 hours prior to the start of the assay. HUVEC's were grown to 80% confluency and serum starved in EGM-2 media supplemented with 0.2% FBS for 16 hours. HUVEC's were then pulsed with Cell Tracker Red CMTPX dye (C34552, Invitrogen) for 45 minutes. Meanwhile, cancer cells were washed with PBS, 0.5 mL of 0.2% FBS EGM-2 media was added to each well, and a 3.0 μm HTS Fluoroblock insert (351151, BD Falcon, San Jose, Calif.) was placed into each well. 1×10^5 HUVEC's, resuspended in 0.5 mL of starvation media, were seeded into each trans-well insert, and the recruitment assay was allowed to proceed for 16-18 hours at 37° C. For neutralization antibody and/or recombinant protein experiments, antibody/protein was then added to each well at the appropriate concentration as indicated in the figures: 40 μg/mL anti-ApoE 1D7, 40 μg/mL anti-IgG, 100 μM rhApoE3, and 100 μM BSA. Upon completion of the assay, the inserts were processed and analyzed as described for the matrigel invasion assay above (See Matrigel Invasion Assay).
The endothelial recruitment assay was carried out as previously described (Pencheva et al., 2012; Png et al., 2012). Melanoma cells were treated with DMSO, GW3965, T0901317, or Bexarotene at 1 μM for 56 hours, after which 5×10^4 cells were seeded in a 24-well plate in the presence of each drug and allowed to attach for 16 hours prior to starting the assay. HUVEC cells were serum-starved overnight in EGM-2 media containing 0.2% FBS. The following day, 1×10^5 HUVEC cells were seeded into a 3.0 μm HTS Fluoroblock trans-well migration insert (351151, BD Falcon, San Jose, Calif.) fitted into each well containing cancer cells at the bottom. The HUVEC cells were allowed to migrate towards the cancer cells for 20 hours at 37° C., after which the inserts were processed as previously described (Pencheva et al., 2012). For ApoE antibody neutralization experiments, 40 μg/mL 1D7 anti-ApoE blocking antibody (Heart Institute, University of Ottawa, Ottawa, Canada) or 40 μg/mL anti-IgG control antibody (AB-108-C, R&D Systems, Minneapolis, Minn.) was added to each trans-well insert at the start of the assay.
Subsequently, 5×10^4 cancer cells were seeded into 24-well plates in the presence of each drug or DMSO and allowed to attach for 16 hours prior to starting the assay. Human umbilical vein endothelial cells (HUVEC cells) were serum-starved in 0.2% FBS-containing media overnight. The following day, 1×10^5 HUVEC cells were seeded into a 3.0 μm HTS Fluoroblock insert (351151, BD Falcon) fitted into each well containing the cancer cells at the bottom. The HUVEC cells were allowed to migrate towards the cancer cells for 20 hours, after which the inserts were washed in PBS, fixed in 4% PFA, labeled with DAPI, and mounted on slides. The basal side of each insert was imaged using an inverted fluorescence microscope (Zeiss Axiovert 40 CFL) at 5× magnification, and the number of DAPI-positive cells was quantified using ImageJ.

[4] = tested on: melanoma cells (MeWo, MeWo-LM2, HT-144, SK-Mel-334.2) and endothelial cells; assay: In vitro cell proliferation, viability and serum starvation assays; assay type: cell-based, human; conditions: MeWo, HT-144, SK-Mel-334.2; 1 μM, 5 days
Method: To determine the effects of miR-199a or miR-1908 over-expression and combinatorial LNA-induced miRNA inhibition on cell proliferation, 2.5×10^4 cells were seeded in triplicate in 6-well plates, and viable cells were counted after 5 days. […] Viable cells were counted after 8, 24, 48, 72, and 120 hours.
The number of viable cells was counter after 8, 16, and 24 hours.
To determine the effects of GW3965, T0901317, and Bexarotene on in vitro cell growth, 2.5×10^4 melanoma cells were seeded in triplicate in 6-well plates and cultured in the presence of DMSO, GW3965, T0901317, or Bexarotene at 1 μM each. After 5 days, the number of viable and dead cells was counted using the trypan blue dye (72-57-1, Sigma-Aldrich), which selectively labels dead cells.

[5] = tested on: B16F10 parental and DTIC-resistant cells; assay: Tumor growth by DTIC-sensitive and DTIC-resistant B16F10 cells; assay type: in vivo, mouse; conditions: dacarbazine 50 mg/kg, i.p., daily
Method: First, the cells were treated with 500 μg/mL DTIC for one week. Following this initial DTIC treatment, the remaining (˜10%) viable cells were allowed to recover for one week, after which 750 rag/mL of DTIC was added to the cell media for 5 days. Subsequent to this high-dose treatment, the cells were allowed to recover in the presence of low-dose DTIC (100 jag/mL) for one week. The cells were then continuously cultured in cell media containing 200 rag/mL DTIC for at least one month prior to grafting the cells into mice. DTIC was added to fresh cancer cell media every 3 days.

CC(C)(O)c1cn(-c2ccc(-c3cc(F)c(CO)c(S(C)(=O)=O)c3)cc2F)c(C(C)(C)c2c(Cl)cccc2Cl)n1 [Compound 12]
ApoE expression induction (ApoE; listed as WO-2010-0138598 Ex. 9): varied degrees of ApoE expression induction; also recorded: potently induce
inhibition of in vitro cancer progression phenotypes (cell invasion, endothelial recruitment) ([1]; MeWo cells, relative to lower potency LXR agonists): more effective
melanoma primary tumor growth [2]: significantly inhibited

CC(C)(O)c1cn(-c2ccc(-c3cccc(S(C)(=O)=O)c3)cc2)c(C(C)(C)c2ccccc2Cl)n1 [Compound 38]
ApoE expression induction (ApoE): varied degrees of ApoE expression induction

Fc1ccc(-c2c3cccc(C(F)(F)F)c3nn2Cc2ccc(F)cc2Cl)cc1 [LXR-623 3]
ApoE expression induction (ApoE): varied degrees of ApoE expression induction

C=C(c1ccc(C(=O)O)cc1)c1cc2c(cc1C)C(C)(C)CCC2(C)C [bexarotene]
ability of melanoma cells to invade through matrigel ([1]; MeWo, HT-144, SK-Mel-2, SK-Mel-334.2): suppressed invasion only in half of the melanoma lines tested
ability of melanoma cells to recruit endothelial cells [3]: did not significantly affect
cell proliferation or cell viability rates [4]: did not affect

CN(C)/N=N/c1[nH]cnc1C(N)=O [dacarbazine]
growth of the DTIC-sensitive parental line [5]: significantly suppressed
tumor growth by B16F10 DTIC-resistant cells [5]: did not affect
